According to ChEMBL document CHEMBL1159384, “Antidiabetic dimeric guianolides and a lignan glycoside from Lactuca indica” (2003):

System: Rattus norvegicus
Assay: Antidiabetic activity in STZ-diabetic rat assessed as lowering of plasma glucose level at 1 mM/kg
Assay type: functional

Row | SMILES | Activity [%]
1 | C=C1C(=O)O[C@@H]2[C@H]3C(COC(=O)Cc4ccc(O)cc4)=CC(=O)C3=C(C)C[C@H](O[C@H]3CC(C)=C4C(=O)C=C(COC(=O)Cc5ccc(O)cc5)[C@@H]4[C@H]4OC(=O)[C@@H](C)[C@@H]43)[C@@H]12 [LACTUCAIN C] | -22.74
2 | COc1cc([C@H]2O[C@@H](O)[C@@H]3[C@H]2[C@H](O[C@@H]2O[C@H](CO)[C@@H](O)[C@H](O)[C@H]2O)O[C@@H]3c2ccc(O)c(OC)c2)ccc1O [LACTUCASIDE] | -17.95
